ChEMBL document CHEMBL4184329, “Identification and Structure-Activity Relationship of HDAC6 Zinc-Finger Ubiquitin Binding Domain Inhibitors” (J Med Chem, 2018)

What was measured:
[1] = molecular target: T1, Protein deacetylase HDAC6 (Homo sapiens, UniProt Q9UBN7); assay: Displacement of N-terminal FITC-labeled RLRGG from N-terminal AviTag/C-terminal His6-tagged HDAC6 ZnF-UBD (unknown origin) expressed in Escherichia coli BL21 (DE3) after 10 mins by fluorescence polarization assay
T1 sequence (Q9UBN7 whole entry): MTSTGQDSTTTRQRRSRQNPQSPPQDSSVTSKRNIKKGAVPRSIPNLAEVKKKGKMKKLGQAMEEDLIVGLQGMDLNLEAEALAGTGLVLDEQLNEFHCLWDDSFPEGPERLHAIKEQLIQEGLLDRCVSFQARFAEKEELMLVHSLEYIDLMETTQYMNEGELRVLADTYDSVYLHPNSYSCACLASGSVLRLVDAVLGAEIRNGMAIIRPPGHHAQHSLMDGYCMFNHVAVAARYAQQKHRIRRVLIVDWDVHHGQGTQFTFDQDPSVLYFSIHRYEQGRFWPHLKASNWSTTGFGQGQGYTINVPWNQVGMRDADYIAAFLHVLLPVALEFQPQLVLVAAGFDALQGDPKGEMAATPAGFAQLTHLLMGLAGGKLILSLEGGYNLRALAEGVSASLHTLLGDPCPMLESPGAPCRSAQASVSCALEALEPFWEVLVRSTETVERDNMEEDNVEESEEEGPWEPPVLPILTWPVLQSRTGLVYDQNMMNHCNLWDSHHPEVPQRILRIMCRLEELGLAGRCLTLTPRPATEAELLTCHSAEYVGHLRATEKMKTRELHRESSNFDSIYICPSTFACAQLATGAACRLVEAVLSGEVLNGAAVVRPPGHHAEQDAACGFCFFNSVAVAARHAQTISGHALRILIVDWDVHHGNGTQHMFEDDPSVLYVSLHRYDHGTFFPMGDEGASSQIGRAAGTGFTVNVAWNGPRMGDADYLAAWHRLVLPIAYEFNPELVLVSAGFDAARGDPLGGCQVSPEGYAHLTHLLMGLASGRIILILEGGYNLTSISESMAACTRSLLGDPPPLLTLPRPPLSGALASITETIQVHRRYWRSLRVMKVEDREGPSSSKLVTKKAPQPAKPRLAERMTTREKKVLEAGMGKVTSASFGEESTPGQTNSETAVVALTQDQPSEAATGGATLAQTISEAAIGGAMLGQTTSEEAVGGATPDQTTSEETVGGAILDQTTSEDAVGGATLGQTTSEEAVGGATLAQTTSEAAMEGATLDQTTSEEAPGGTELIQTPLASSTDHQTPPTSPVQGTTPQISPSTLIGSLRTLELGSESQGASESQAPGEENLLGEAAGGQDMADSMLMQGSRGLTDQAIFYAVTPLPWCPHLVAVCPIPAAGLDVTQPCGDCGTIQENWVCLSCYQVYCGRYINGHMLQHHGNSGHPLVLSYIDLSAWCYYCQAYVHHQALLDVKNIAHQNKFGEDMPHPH

[2] = molecular target: T1, Protein deacetylase HDAC6; assay: Binding affinity to biotinylated HDAC6 ZnF-UBD (unknown origin) by surface plasmon resonance method

SMILES | IC50 ([1]; read-out: IC50) [µM] | IC50 [1] | other results
O=C(O)Cn1cnc2ccccc2c1=O | 320 | – | –
O=C(O)CCc1nc2cc(Cl)ccc2n(Cc2ccccc2)c1=O | 150 | – | –
O=C(O)Cn1cnc2c(oc3ccccc32)c1=O | 51 | – | –
O=C(O)CCc1nc(O)c2ccccc2n1 | 230 | – | –
O=C(O)Cn1cnc2ccc(Br)cc2c1=O | 200 | – | –
Cn1c(=O)c(CCC(=O)O)nc2ccccc21 | 65 | – | –
O=C(O)CCc1nc2ccccc2s1 | 180 | – | –
O=C(O)CCc1nc2ccccc2c2nc(=O)c(Cc3ccccc3)nn12 | 25 | – | –
COc1nc2ccccc2nc1CCC(N)=O | – | Not Active | –
O=C(O)Cn1nc(O)c2ccccc2c1=O | 200 | – | –
O=C(O)CCc1nc2ccccc2o1 | – | Not Active | –
CS(=O)(=O)Cc1nc2ccccc2n1CC(=O)Nc1cccc(NC(N)=O)c1 | – | Not Active | –
O=C(O)Cc1nc2ccccc2s1 | 390 | – | –
CC(Cc1nc2ccccc2s1)C(=O)O (stereo unspecified) | – | Not Active | –
CNC(=O)CCc1nc2ccccc2nc1OC | – | Not Active | –
O=C(O)Cc1ccc2ccccc2n1 | – | Not Active | –
O=C(O)CCc1nc2cc3nc(CCC(=O)O)sc3cc2s1 | 5.1 | – | Kd [2]: 8 µM
COC(Cc1nc2ccccc2s1)C(=O)O (stereo unspecified) | – | Not Active | –
O=C(O)CCc1ccc2ccccc2n1 | > 720 | – | –
COc1cc2ncn(CC(=O)O)c(=O)c2cc1OC | 44 | – | –
O=C(O)CCc1cc2ccccc2o1 | – | Not Active | –
O=C(O)CCc1nc2ccccc2[nH]1 [PROCODAZOLE] | – | Not Active | –

More lines, main results first:

IC50 ([1]; read-out: IC50) [µM] | IC50 [1] | SMILES | other results
45 | – | COc1nc2ccccc2nc1CCC(=O)O | –
– | Not Active | COC(=O)CCc1nc2ccccc2nc1OC | –
– | Not Active | O=C(O)CCCc1nc2ccccc2s1 | –
– | Not Active | CN(C(=O)Cn1c(CS(C)(=O)=O)nc2ccccc21)c1ccccc1 | –
– | Not Active | COc1nccnc1CCC(=O)O | –
100 | – | Cn1c(CCC(=O)O)nc2ccccc21 | –
– | Not Active | COC(CC(=O)O)c1nc2ccccc2s1 (stereo unspecified) | –
95 | – | COc1cc2ncn(CCC(=O)O)c(=O)c2cc1OC | –
240 | – | O=C(O)CCn1nnc2ccccc2c1=O | –
– | Not Active | O=C(O)C(O)C(O)c1nc2ccccc2s1 (stereo unspecified) | –
190 | – | Cc1cc(C)c2c(n1)sc1c(=O)n(CC(=O)O)cnc12 | –
640 | – | NC(=O)c1cc(-n2c(CCC(=O)O)nc3ccccc32)cs1 | –
77 | – | N#Cc1c2n(c3c(=O)n(CC(=O)O)cnc13)CCCC2 | –
